Laboratory results reported in publication PMC6499206, “Quantification of Volatile Metabolites Derived From Garlic (Allium sativum) in Human Urine” (Frontiers in Nutrition, 2019).

Assay: Quantification of garlic-derived metabolites in human urine after ingestion of 3 g raw garlic (SIDA, SAFE, HRGC-MS / HRGC-GC-MS)
Type: in vivo
Design: metabolite in urine related to creatinine: unit not given here
Settings: for metabolite concentration in urine, creatinine-normalized / metabolite concentration in urine / highest detected concentration of the sample series: 3 g raw garlic; for highest detected concentration of the sample series: same bulb
Summary of the method: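 Quantification used stable isotope dilution (²H3-AMS, -AMSO, -AMSO2 standards), SAFE distillation at 50°C of DCM-treated urine, and GC-MS on a DB-FFAP column, with creatinine from the Jaffé reaction at 492 nm. Urine came from 18 volunteers avoiding sulfur-rich foods, sampled before and up to 24 h after eating 3 g raw garlic.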

C=CC[S+](C)[O-] (stereo not shown) [AMSO, allyl methyl sulfoxide]
metabolite concentration in urine, creatinine-normalized (U XII, 1 h post (1.03 h)): 83.2 µg/mmol creatinine | metabolite concentration in urine (U XII, 2 h post (1.85 h)): 72.2 µg/kg | metabolite concentration in urine, creatinine-normalized (U XII, 2 h post (1.85 h)): 108.2 µg/mmol creatinine | metabolite concentration in urine (U XII, 4 h post (3.80 h)): 84.6 µg/kg | metabolite concentration in urine, creatinine-normalized (U XII, 4 h post (3.80 h)): 31.9 µg/mmol creatinine | metabolite concentration in urine (U XII, 6 h post (5.82 h)): 61.6 µg/kg | metabolite concentration in urine, creatinine-normalized (U XII, 6 h post (5.82 h)): 10.8 µg/mmol creatinine | metabolite concentration in urine (U XII, 8 h post (7.82 h)): 28.7 µg/kg | metabolite concentration in urine, creatinine-normalized (U XII, 8 h post (7.82 h)): 10.1 µg/mmol creatinine | metabolite concentration in urine (U XII, 24 h post (23.92 h)): 11.3 µg/kg | metabolite concentration in urine, creatinine-normalized (U XII, 24 h post (23.92 h)): 0.8 µg/mmol creatinine | metabolite concentration in urine (U XII, pre (-0.08 h)): 3.9 µg/kg | metabolite concentration in urine, creatinine-normalized (U XII, pre (-0.08 h)): 0.2 µg/mmol creatinine | metabolite concentration in urine (U XIII, 0.5 h post (0.42 h)): 38.0 µg/kg | metabolite concentration in urine, creatinine-normalized (U XIII, 0.5 h post (0.42 h)): 23.8 µg/mmol creatinine | metabolite concentration in urine (U XIII, 1 h post (0.92 h)): 216.6 µg/kg | metabolite concentration in urine, creatinine-normalized (U XIII, 1 h post (0.92 h)): 87.7 µg/mmol creatinine | metabolite concentration in urine (U XIII, 2 h post (1.92 h)): 197.5 µg/kg | metabolite concentration in urine, creatinine-normalized (U XIII, 2 h post (1.92 h)): 57.1 µg/mmol creatinine | metabolite concentration in urine (U XIII, 4 h post (3.92 h)): 105.6 µg/kg | metabolite concentration in urine, creatinine-normalized (U XIII, 4 h post (3.92 h)): 22.5 µg/mmol creatinine | metabolite concentration in urine (U XIII, 6 h post (5.92 h)): 42.9 µg/kg | metabolite concentration in urine, creatinine-normalized (U XIII, 6 h post (5.92 h)): 3.7 µg/mmol creatinine | metabolite concentration in urine (U XIII, 8 h post (7.92 h)): 2.6 µg/kg | metabolite concentration in urine, creatinine-normalized (U XIII, 8 h post (7.92 h)): 0.3 µg/mmol creatinine | metabolite concentration in urine (U XIII, 24 h post (23.92 h)): 2.6 µg/kg | metabolite concentration in urine, creatinine-normalized (U XIII, 24 h post (23.92 h)): 0.3 µg/mmol creatinine | metabolite concentration in urine (U XIII, pre (-0.08 h)): < LOD^2 | metabolite concentration in urine, creatinine-normalized (U XIII, pre (-0.08 h)): < LOD^2 | variation factor of the concentration maxima between test persons (Urine XIII-XVI, highest vs lowest maximum): up to 3.0 | highest detected concentration of the sample series (Urine XIII): 87.7 μg/mmol creatinine | highest detected concentration of the sample series (Urine XIV (AMS: printed Urine UIV)): 84.7 μg/mmol creatinine | highest detected concentration of the sample series (Urine XV): 150.4 μg/mmol creatinine | highest detected concentration of the sample series (Urine XVI): 50.1 μg/mmol creatinine | metabolite in urine related to creatinine (urine set U XIX, 0.5 h post (0.50 h), garlic 3.1133 g): 15.1 | metabolite in urine related to creatinine (urine set U XIX, 1 h post (1.00 h), garlic 3.1133 g): 68.8 | metabolite in urine related to creatinine (urine set U XIX, 2 h post (2.00 h), garlic 3.1133 g): 70.6 | metabolite in urine related to creatinine (urine set U XIX, 4 h post (4.00 h), garlic 3.1133 g): 27.0 | metabolite in urine related to creatinine (urine set U XIX, 6 h post (6.20 h), garlic 3.1133 g): 9.8 | metabolite in urine related to creatinine (urine set U XIX, 8 h post (7.93 h), garlic 3.1133 g): 5.9 | metabolite in urine related to creatinine (urine set U XIX, 24 h post (23.98 h), garlic 3.1133 g): 0.2 | metabolite in urine related to creatinine (urine set U XIX, pre (-0.07 h), garlic 3.1133 g): < LOD^2 | metabolite in urine related to creatinine (urine set U XVII, 0.5 h post (0.58 h), garlic 3.1559 g): 0.8 | metabolite in urine related to creatinine (urine set U XVII, 1 h post (1.00 h), garlic 3.1559 g): 10.7 | metabolite in urine related to creatinine (urine set U XVII, 2 h post (2.17 h), garlic 3.1559 g): 27.6 | metabolite in urine related to creatinine (urine set U XVII, 4 h post (4.00 h), garlic 3.1559 g): 15.5 | metabolite in urine related to creatinine (urine set U XVII, 6 h post (6.08 h), garlic 3.1559 g): 1.2 | metabolite in urine related to creatinine (urine set U XVII, 8 h post (8.00 h), garlic 3.1559 g): 1.8 | metabolite in urine related to creatinine (urine set U XVII, 24 h post (23.92 h), garlic 3.1559 g): 0.2 | metabolite in urine related to creatinine (urine set U XVII, pre (-0.08 h), garlic 3.1559 g): 0.3 | metabolite in urine related to creatinine (urine set U XVIII, 0.5 h post (0.63 h), garlic 3.1981 g): 44.1 | metabolite in urine related to creatinine (urine set U XVIII, 1 h post (1.05 h), garlic 3.1981 g): 84.8 | metabolite in urine related to creatinine (urine set U XVIII, 2 h post (2.00 h), garlic 3.1981 g): 94.9 | metabolite in urine related to creatinine (urine set U XVIII, 4 h post (3.97 h), garlic 3.1981 g): 50.9 | metabolite in urine related to creatinine (urine set U XVIII, 6 h post (5.97 h), garlic 3.1981 g): 16.6 | metabolite in urine related to creatinine (urine set U XVIII, 8 h post (8.30 h), garlic 3.1981 g): 17.1 | metabolite in urine related to creatinine (urine set U XVIII, 24 h post (24.13 h), garlic 3.1981 g): 0.5 | metabolite in urine related to creatinine (urine set U XVIII, pre (-0.08 h), garlic 3.1981 g): < LOD^2
